Patent US20230059009A1, “INHIBITORS OF LIN28 AND METHODS OF USE THEREOF” (The Regents of the University of California, priority 2019, published 2023)

What was measured:
22RV1 = assay: Cell viability, MTT assay, 22RV1; format: cell-based; settings: 22RV1 (Prostate), 96 hr
Protocol: (§1) To measure cell viability, cell titer glow (CTG, Promega CellTiter-Glo 2.0 Assay) and MTT assays (SigmaAldrich, Cell Proliferation Kit I) were performed. Briefly, cells were serum starved overnight prior to seeding in 96-well plates. Following 24 h incubation, cells were treated with increasing concentrations of JGJ compounds for 96 hr. At assay read-out, CellTiter-Glo reagent was added and luminescence was measured after 10-minutes incubation at room temperature. For the MTT assay, MTT labeling reagent was added and incubated for 4 h. Subsequently, medium was removed and 50 μL DMSO was added to solubilize the crystals, and absorbance was measured at 570 nm. Cell viability was calculated as (Sample-Background)/(Control-Background).

CYP 2C9 = CYP 2C9 (Homo sapiens, UniProt P11712); assay: CYP inhibition 2C9; format: in vitro ADME; parameters: unit not given here; settings: Conc. 30 uM
Chain of CYP 2C9 (P11712 whole entry): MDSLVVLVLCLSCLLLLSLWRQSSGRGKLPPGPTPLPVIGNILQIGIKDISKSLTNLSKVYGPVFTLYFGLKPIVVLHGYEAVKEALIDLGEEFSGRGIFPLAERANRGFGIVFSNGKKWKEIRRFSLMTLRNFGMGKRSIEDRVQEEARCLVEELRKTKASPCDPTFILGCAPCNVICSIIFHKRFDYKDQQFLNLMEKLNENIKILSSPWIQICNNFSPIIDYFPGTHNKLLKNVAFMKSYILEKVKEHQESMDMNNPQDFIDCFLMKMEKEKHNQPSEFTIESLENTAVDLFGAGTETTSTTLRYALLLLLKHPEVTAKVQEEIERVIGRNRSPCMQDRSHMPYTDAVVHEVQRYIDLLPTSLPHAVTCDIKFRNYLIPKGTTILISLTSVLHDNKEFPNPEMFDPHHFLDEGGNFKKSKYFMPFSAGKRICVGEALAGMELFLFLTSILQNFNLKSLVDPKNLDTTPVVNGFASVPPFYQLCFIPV

SW620 = assay: Cell viability, MTT assay, SW620; format: cell-based
Protocol: as §1, with “(Sample-Background)/(Control-Background). Current standard of care drugs, Enzalutamide, Palbociclib and Cetuximab were used as comparative controls.” for “(Sample-Background)/(Control-Background).”

BT-549 = assay: Cell viability, CTG, BT-549; format: cell-based; settings: BT-549 (Breast)
Protocol: as §1, with “(Sample-Background)/(Control-Background). Current standard of care drugs, Enzalutamide, Palbociclib and Cetuximab were used as comparative controls.” for “(Sample-Background)/(Control-Background).”

H23 = assay: Cell viability, MTT assay, H23; format: cell-based
Protocol: as §1, with “(Sample-Background)/(Control-Background). Current standard of care drugs, Enzalutamide, Palbociclib and Cetuximab were used as comparative controls.” for “(Sample-Background)/(Control-Background).”

SW480 [1] = assay: Cell viability, MTT assay, SW480; format: cell-based; settings: SW480 (Colon)
Protocol: as §1, with “(Sample-Background)/(Control-Background). Current standard of care drugs, Enzalutamide, Palbociclib and Cetuximab were used as comparative controls.” for “(Sample-Background)/(Control-Background).”

ASPC-1 = assay: Cell viability, CTG, ASPC-1; format: cell-based
Protocol: as §1, with “(Sample-Background)/(Control-Background). Current standard of care drugs, Enzalutamide, Palbociclib and Cetuximab were used as comparative controls.” for “(Sample-Background)/(Control-Background).”

SW480 [2] = assay: Cell viability, CTG, SW480; format: cell-based; settings: SW480 (Colon)
Protocol: as §1

DU145 = assay: Cell viability, MTT assay, DU145; format: cell-based; settings: Homo sapiens, DU-145, DU145 (Prostate)
Protocol: as §1, with “(Sample-Background)/(Control-Background). Current standard of care drugs, Enzalutamide, Palbociclib and Cetuximab were used as comparative controls.” for “(Sample-Background)/(Control-Background).”

MDA-MB231 [3] = assay: Cell viability, MTT assay, MDA-MB231; format: cell-based
Protocol: as §1, with “(Sample-Background)/(Control-Background). Current standard of care drugs, Enzalutamide, Palbociclib and Cetuximab were used as comparative controls.” for “(Sample-Background)/(Control-Background).”

CAPAN-1 = assay: Cell viability, CTG, CAPAN-1; format: cell-based; settings: CAPAN-1 (Pancreatic)
Protocol: as §1, with “(Sample-Background)/(Control-Background). Current standard of care drugs, Enzalutamide, Palbociclib and Cetuximab were used as comparative controls.” for “(Sample-Background)/(Control-Background).”

[4] = Microsomal stability, CD-1 Mouse; format: in vitro ADME; settings: for CLint scaled at 30 uM / half-life at 30 uM: microsomes; for half-life at 30 uM: read-out: Microsomal stability T½
MDA-MB231 [5] = assay: Cell viability, CTG, MDA-MB231; format: cell-based; settings: Homo sapiens, MDA-MB-231, MDA-MB231 (Breast)
Protocol: as §1, with “(Sample-Background)/(Control-Background). Current standard of care drugs, Enzalutamide, Palbociclib and Cetuximab were used as comparative controls.” for “(Sample-Background)/(Control-Background).”

H460 = assay: Cell viability, MTT assay, H460; format: cell-based
Protocol: as §1, with “(Sample-Background)/(Control-Background). Current standard of care drugs, Enzalutamide, Palbociclib and Cetuximab were used as comparative controls.” for “(Sample-Background)/(Control-Background).”

[6] = Microsomal stability, Human; format: in vitro ADME; settings: Conc. 30 uM; for CLint scaled at 30 uM / half-life at 30 uM: microsomes; for half-life at 30 uM: read-out: Microsomal stability T½
CYP 2B6 = molecular target: T1, CYP 2B6 (Homo sapiens, UniProt P20813); assay: CYP inhibition 2B6; format: in vitro ADME; parameters: unit not given here; settings: Conc. 30 uM
T1 sequence (P20813 1-491): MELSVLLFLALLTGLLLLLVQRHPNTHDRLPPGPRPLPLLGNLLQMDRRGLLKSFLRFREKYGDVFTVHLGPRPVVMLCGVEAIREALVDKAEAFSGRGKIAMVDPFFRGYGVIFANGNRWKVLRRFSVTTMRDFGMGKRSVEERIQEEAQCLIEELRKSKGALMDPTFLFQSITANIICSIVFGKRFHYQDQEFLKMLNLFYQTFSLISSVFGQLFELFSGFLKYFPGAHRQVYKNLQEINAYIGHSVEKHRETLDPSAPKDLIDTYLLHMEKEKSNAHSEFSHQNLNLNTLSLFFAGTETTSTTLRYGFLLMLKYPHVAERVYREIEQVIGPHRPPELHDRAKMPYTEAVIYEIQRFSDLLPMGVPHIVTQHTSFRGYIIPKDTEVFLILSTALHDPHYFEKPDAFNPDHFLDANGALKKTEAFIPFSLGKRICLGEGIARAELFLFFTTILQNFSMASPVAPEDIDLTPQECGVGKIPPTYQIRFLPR

Caco2 permeability = format: in vitro ADME; settings: human, Caco-2, Conc. 30 uM; for recovery at 30 uM: read-out: Caco2 Mean A-B % Recovery
MCF7 = assay: Cell viability, MTT assay, MCF7; format: cell-based; settings: MCF7 (Breast)
Protocol: as §1, with “(Sample-Background)/(Control-Background). Current standard of care drugs, Enzalutamide, Palbociclib and Cetuximab were used as comparative controls.” for “(Sample-Background)/(Control-Background).”

HCT-116 = assay: Cell viability, CTG, HCT-116; format: cell-based; settings: HCT-116 (Colon)
Protocol: as §1, with “(Sample-Background)/(Control-Background). Current standard of care drugs, Enzalutamide, Palbociclib and Cetuximab were used as comparative controls.” for “(Sample-Background)/(Control-Background).”

LNCaP = assay: Cell viability, MTT assay, LNCaP; format: cell-based; settings: LNCaP (Prostate)
Protocol: as §1

CYP 2D6 = CYP 2D6 (Homo sapiens, UniProt P10635); assay: CYP inhibition 2D6; format: in vitro ADME; parameters: unit not given here; settings: Conc. 30 uM
Chain of CYP 2D6 (P10635 whole entry): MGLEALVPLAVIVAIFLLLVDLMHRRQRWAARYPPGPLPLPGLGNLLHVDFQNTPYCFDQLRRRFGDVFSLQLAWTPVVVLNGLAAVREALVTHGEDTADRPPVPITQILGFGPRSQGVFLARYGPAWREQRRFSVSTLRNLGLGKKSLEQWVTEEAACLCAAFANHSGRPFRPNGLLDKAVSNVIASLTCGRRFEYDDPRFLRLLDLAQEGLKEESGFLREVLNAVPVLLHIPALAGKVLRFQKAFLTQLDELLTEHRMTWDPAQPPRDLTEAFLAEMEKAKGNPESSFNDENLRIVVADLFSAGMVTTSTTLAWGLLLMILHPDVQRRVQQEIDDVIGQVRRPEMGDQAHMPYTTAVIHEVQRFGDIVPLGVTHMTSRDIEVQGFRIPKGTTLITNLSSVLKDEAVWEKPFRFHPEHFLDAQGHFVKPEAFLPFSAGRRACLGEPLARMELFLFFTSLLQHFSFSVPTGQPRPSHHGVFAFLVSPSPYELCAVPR

H1975 = assay: Cell viability, MTT assay, H1975; format: cell-based
Protocol: as §1

A549 = assay: Cell viability, MTT assay, A549; format: cell-based; settings: A549 (Lung)
Protocol: as §1

[7] = Homo sapiens, SW-620, SW620 (Colon)
[8] = Homo sapiens, NCI-H23, H23 (Lung)
[9] = Homo sapiens, ASPC1, ASPC-1 (Pancreatic)
[10] = Homo sapiens, MDA-MB-231, MDA-MB231 (Breast)
[11] = Homo sapiens, NCI-H460, H460 (Lung)
[12] = Homo sapiens, NCI-H1975, H1975 (Lung)

| Structure (SMILES) | IC50 (22RV1; Homo sapiens) | CYP inhibition 2C9 (CYP 2C9) | IC50 (SW620; [7]) | IC50 (BT-549; Homo sapiens) | IC50 (H23; [8]) | IC50 (SW480 [1]; Homo sapiens) | IC50 (ASPC-1; [9]) | IC50 (SW480 [2]; Homo sapiens) | IC50 (DU145) | IC50 (MDA-MB231 [3]; [10]) | IC50 (CAPAN-1; Homo sapiens) | Microsomal stability % Remaining at T30 ([4]; Conc. 30 uM) | CLint scaled at 30 uM ([4]; Conc. 30 uM) | half-life at 30 uM ([4]; Conc. 30 uM) | IC50 (MDA-MB231 [5]) | IC50 (H460; [11]) | Microsomal stability % Remaining at T30 [6] | CLint scaled at 30 uM [6] | half-life at 30 uM [6] | CYP inhibition 2B6 (CYP 2B6) | also measured |
| --- | --- | --- | --- | --- | --- | --- | --- | --- | --- | --- | --- | --- | --- | --- | --- | --- | --- | --- | --- | --- | --- |
| CC(=O)Nc1cccc(-c2ccc3ncc(C)n3n2)c1 [JGJ007, N-(3-(3-Methylimidazo[1,2-b]pyridazin-6-yl)phenyl)acetamide] | 97 µM | 24.65 | 64 µM | 75 µM | 95 µM | 64 µM | 188 µM | 68 µM | 5 µM | 39 µM | 91 µM | T30 = 37.6% | 257 mL/min/kg | 21.2 min | 43 µM | 512 µM | T30 = 72.8% | 19 mL/min/kg | 65.6 min | 45.39 | Papp A→B at 30 uM (Caco2 permeability): 36.2 ×10⁻⁶ cm/s; Papp B→A at 30 uM (Caco2 permeability): 30 ×10⁻⁶ cm/s; efflux ratio at 30 uM (Caco2 permeability): 0.829; recovery at 30 uM (Caco2 permeability): 87%; IC50 (MCF7; Homo sapiens): 45 µM; IC50 (HCT-116; Homo sapiens): 148 µM; IC50 (LNCaP; Homo sapiens): 54 µM; CYP inhibition 2D6 (CYP 2D6): 54.08; IC50 (H1975; [12]): 31 µM; IC50 (A549; Homo sapiens): 97 µM |
| Cc1cnc2ccc(-c3cccc(F)c3)nn12 [JGJ015, 6-(3-Fluorophenyl)-3-methylimidazo[1,2-b]pyridazine] | 209 µM | 14.27 | 62 µM | 48 µM | 62 µM | 53 µM | 157 µM | 110 µM | 30 µM | 145 µM | 137 µM | T30 = 2.3% | 988 mL/min/kg | 5.52 min | 75 µM | 594 µM | T30 = 6.9% | 161 mL/min/kg | 7.76 min | 67.27 | Papp A→B at 30 uM (Caco2 permeability): 24.1 ×10⁻⁶ cm/s; Papp B→A at 30 uM (Caco2 permeability): 21.1 ×10⁻⁶ cm/s; efflux ratio at 30 uM (Caco2 permeability): 0.874; recovery at 30 uM (Caco2 permeability): 67.3%; IC50 (MCF7; Homo sapiens): 59 µM; IC50 (HCT-116; Homo sapiens): 148 µM; IC50 (LNCaP; Homo sapiens): 83 µM; CYP inhibition 2D6 (CYP 2D6): 19.38; IC50 (H1975; [12]): 51 µM; IC50 (A549; Homo sapiens): 93 µM |
| CC(=O)N(C)c1cccc(-c2ccc3nnc(C)n3n2)c1 [LN1632] | – | – | – | – | – | – | – | – | – | – | – | – | – | – | – | – | – | – | – | – | IC50 (22RV1): 236 µM; IC50 (SW620; SW620 (Colon)): 161 µM; IC50 (BT-549): 151 µM; IC50 (H23; H23 (Lung)): 167 µM; IC50 (SW480 [1]): 155 µM; IC50 (ASPC-1; ASPC-1 (Pancreatic)): 111 µM; IC50 (SW480 [2]): 168 µM; IC50 (MDA-MB231 [3]; MDA-MB231 (Breast)): 136 µM; IC50 (CAPAN-1): 82 µM; Microsomal stability % Remaining at T30 ([4]; Conc. 100 uM): T30 = 90.2%; Microsomal stability CLint ([4]; Conc. 100 uM): kg) = 27 mL/min/kg; Microsomal stability T½ ([4]; Conc. 100 uM): T½ = 202 min; IC50 (H460; H460 (Lung)): 172 µM; IC50 (MCF7): 144 µM; IC50 (HCT-116): 158 µM; IC50 (LNCaP): 110 µM; IC50 (H1975; H1975 (Lung)): 91 µM; IC50 (A549): 151 µM |
